Series [1] has as its target T1, cloned mouse KCNQ2 (mKCNQ2) (Mus musculus, UniProt Q9Z351).
T1 construct: expressed in transfected cells; host or cells: Xenopus oocytes injected with mKCNQ2 cRNA
Kind of series: KCNQ oocyte two-electrode voltage clamp, KCNQ2-mediated outward current. Format: cell-based. As to conditions: expressed as percent increase over KCNQ current in controls, Xenopus oocytes. The protocol: The ability of compounds described in the present invention to open KCNQ channels and increase whole-cell outward (K^+) KCNQ-mediated currents was assessed under voltage-clamp conditions by determining their ability to increase cloned mouse KCNQ2 (mKCNQ2)-mediated, heteromultimeric KCNQ2/3 (mμKCNQ2/3)-mediated, and human KCNQ5 (hKCNQ5)-mediated outward currents heterologously expressed in Xenopus oocytes. Oocytes were prepared and injected using standard techniques; each oocyte was injected with approximately 50 nl of mKCNQ2, or hKCNQ5 cRNA. In the case of mKCNQ2/3 heteromultimeric channel expression, equal amounts (25-50 nL) of ech cRNA were co-injected. […] Following injection, oocytes were maintained at 17° in ND96 medium consisting of (in mM): NaCl, 90; KCl, 1.0; CaCl2, 1:0; MgCl2, 1:0; HEPES, 5.0; pH 7.5. Horse serum (5%) and penicillin/streptomyin (5%) were added to the incubation medium. Recording commenced 2-6 days following mRNA injection. Prior to the start of an experiment oocytes were placed in a recording chamber and incubated in Modified Barth's Solution (MBS) consisting of (in mM): NaCl, 88; NaHCO3, 2.4; KCl, 1.0; HEPES, 10; MgSO4, 0.82; Ca(NO3)2, 0.33; CaCl2, 0.41; pH 7.5.
Oocytes were impaled with electrodes (1-2 MΩ) and standard 2-electrode voltage clamp techniques were employed to record whole-cell membrane currents. Recordings were accomplished using standard two-electrode voltage clamp techniques [Stuhmer, W., et al., Methods in Enzymolgy, Vol. 207: 319-339 (1992)]. Voltage-clamp protocols typically consisted of a series of voltage steps 1-5 sec duration, in +10 mV steps from a holding potential of −90 mV to a maximal potential of +40 mV; records were digitized at 5 kHz and stored on a computer using pClamp data acquisition and analysis software (Axon Instruments). Compounds were evaluated at a single concentration (10 or 20 μM); the effect of the selected compounds of Formula I on KCNQ2 current was expressed as the percent of control current and is listed in Table I.
(Two-electrode voltage clamp is typically applied to oocytes expressing channels or transporters.)

Series [2] relates to SSS-stimulated trigeminal field response in trigeminal nucleus caudalis. Kind of series: In vivo electrophysiology: superior sagital sinus (SSS)-stimulated trigeminal field response (migraine model). More on the design: species or system rat. The source says: Male Long-Evans rats (Harlan, 250-400 g) were used in the experiments described in this example. Prior to testing, rats were allowed access to food and water ad libitum and were maintained on a 12:12-h light/dark cycle. Rats were group housed in an Association for Assessment and Accreditation of Laboratory Animal Care (AAALAC) accredited facility and cared for in strict compliance with all applicable regulations.
Rats were anesthetized with 1.2 g/kg i.p. urethane (#U-2500, Sigma Chemical Company, St. Louis, Mo.) and given supplemental urethane as needed. In the case of intravenous (i.v.) drug administration, the jugular veins of the rats were cannulated using sylastic tubing pre-filled with vehicle.
Rats were placed in a stereotaxic device (#1730, David Kopf Instruments, Tujunga, Calif.) and an incision was made to expose the entire skull that continued caudally to the level of the C1/C2 vertebral juncture. Using a microdrill (#770, Dremel, Racine, Wis.) and #4 carbide burr (Henry Schein, Melville, N.Y.), a square section of skull was removed extending from the bregma position, rostrally, to the lambda position, caudally. […]
Stimulated field responses were recorded in the trigeminal nucleus caudalis using Teflon coated stainless-steel microelectrodes (5 megaohms impedance, Frederick Haer, Brunswick, Me.) and amplified and filtered (0.1 Hz-10 kHz) using a differential amplifier (#IsoDAM8, World Precision Instruments, Sarasota, Fla.). […]
Three baseline measures (i.e., 100% of control), each consisting of 100 evoked trigeminal field potentials, were sampled prior to drug injection. […] Following injection of test substances, data were sampled for 1 hour, averaged into 5 minute bins (90 evoked potentials) and expressed as a percent change from average baseline values for the purposes of statistical analysis. Data were analyzed using repeated measures analyses of variance comparing vehicle and drug effects. […]

Marks after values point to notes of the source that are not given here.

T1 sequence (Q9Z351 whole entry): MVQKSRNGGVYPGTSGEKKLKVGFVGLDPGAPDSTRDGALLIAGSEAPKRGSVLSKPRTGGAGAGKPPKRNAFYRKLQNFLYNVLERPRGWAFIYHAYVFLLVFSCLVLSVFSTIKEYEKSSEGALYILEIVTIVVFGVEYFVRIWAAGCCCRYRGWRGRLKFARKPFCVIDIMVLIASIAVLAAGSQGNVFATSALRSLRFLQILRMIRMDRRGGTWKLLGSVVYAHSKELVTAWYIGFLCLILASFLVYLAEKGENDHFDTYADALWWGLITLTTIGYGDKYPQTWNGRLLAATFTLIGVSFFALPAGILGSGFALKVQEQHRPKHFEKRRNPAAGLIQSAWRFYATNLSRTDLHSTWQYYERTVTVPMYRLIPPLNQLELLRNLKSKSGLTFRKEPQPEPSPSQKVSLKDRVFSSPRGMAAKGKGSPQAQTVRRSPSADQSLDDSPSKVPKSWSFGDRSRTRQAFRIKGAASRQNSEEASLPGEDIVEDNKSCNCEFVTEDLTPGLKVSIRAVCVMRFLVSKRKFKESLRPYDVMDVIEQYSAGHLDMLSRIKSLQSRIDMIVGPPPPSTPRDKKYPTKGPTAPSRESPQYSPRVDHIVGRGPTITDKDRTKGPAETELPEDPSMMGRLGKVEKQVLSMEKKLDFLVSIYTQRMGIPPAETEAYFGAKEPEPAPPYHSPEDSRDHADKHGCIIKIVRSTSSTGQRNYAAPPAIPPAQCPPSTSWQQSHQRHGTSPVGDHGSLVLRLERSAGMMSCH

Regarding `O=C1Nc2cc(C(F)(F)F)ccc2C1(F)c1cc(Cl)ccc1OCC(F)(F)F` (racemic) [Example 1, (±)-3-[5-Chloro-2-[(2,2,2-trifluoroethoxy)phenyl]-1,3-dihydro-3-fluoro-6-(trifluoromethyl)-2H-indol-2-one], the “KCNQ2 Current” value in series [1] (at 10 μM) is recorded as “++** (++ = >150%)”. `O=C1Nc2cc(C(F)(F)F)ccc2C1(F)c1cc(Cl)ccc1OCC(F)(F)F` (racemic) [Example 2, (±)-3-[5-Chloro-2-[(2,2,2-trifluoroethoxy)phenyl]-1,3-dihydro-3-fluoro-6-(trifluoromethyl)-2H-indol-2-one]: the “decrease from control amplitude of SSS-stimulated trigeminal field response” value in series [2] (50 mg/kg i.v., anesthetized Long-Evans rats, solution in 100% polyethylene glycol 400) is 86.7±1.67%. In addition, the “reduction of trigeminal field response compared with vehicle” value in series [2] (doses 0.1, 1.0, 10.0, 30.0 and 50.0 mg/kg i.v., p<0.01 in all cases) is listed as “Significant reductions compared with vehicle”. Also, the “reduction in the SSS-stimulated trigeminal field response” value in series [2] (i.v., rats, overall ANOVA p<0.001) is given as “dose-dependent reduction”. The “KCNQ2 Current” value in series [1] (at 10 μM) is recorded as “++** (++ = >150%)”. Broadly, the melting point is the temperature, or range, at which the solid turns liquid. `O=C1Nc2cc(F)ccc2C1(F)c1cc(Cl)ccc1OCC(F)(F)F` (racemic) [Example 6, (±)-3-[5-Chloro-2-(2,2,2-trifluoroethoxy)phenyl]-1,3-dihydro-3,6-difluoro-2H-indol-2-one] yielded a melting point of 200 to 202 °C.

With `O=C1Nc2cc(CF)ccc2C1(F)c1cc(Cl)ccc1OCC(F)(F)F` (racemic) [Example 7, (±)-3-[5-Chloro-2-(2,2,2-trifluoroethoxy)phenyl]-1,3-dihydro-3-fluoro-6-(fluoromethyl)-2H-indol-2-one], the melting point was in the range of 150 to 151 °C. `O=C1Nc2cc(F)c(F)cc2C1(F)c1cc(Cl)ccc1OCC(F)(F)F` (racemic) [Example 10, (±)-3-[5-Chloro-2-(2,2,2-trifluoroethoxy)phenyl]-1,3-dihydro-3,5,6-trifluoro-2H-indol-2-one] displayed a melting point of 200 to 203 °C. In addition, in series [1] (at 20 μM), the “KCNQ2 Current” value is listed as “+ (+ = 120-150%)”.

On to `O=C1Nc2cc(Cl)ccc2C1(F)c1cc(Cl)ccc1OCC(F)(F)F` (racemic) [Example 11, (±)-6-Chloro-3-[5-chloro-2-(2,2,2-trifluoroethoxy)phenyl]-1,3-dihydro-3-fluoro-2H-indol-2-one], for which the melting point lay in the range of 167 to 169 °C. Also, the “KCNQ2 Current” value in series [1] (at 20 μM) is listed as “++ (++ = >150%)”. For `O=C1Nc2cc(C(F)(F)F)ccc2C1(F)c1cc(Cl)ccc1OCCF` (racemic) [Example 14, (±)-3-[5-Chloro-2-(2-fluoroethoxy)phenyl]-1,3-dihydro-3-fluoro-6-(trifluoromethyl)-2H-indol-2-one], the “KCNQ2 Current” value in series [1] (at 20 μM) is listed as “+ (+ = 120-150%)”.

As to `O=C1Nc2cc(-c3ccc(C(F)(F)F)cc3)ccc2C1(F)c1cc(Cl)ccc1OCC(F)(F)F` (racemic) [Example 23, (±)-3-[5-Chloro-2-(2,2,2-trifluoroethoxy)phenyl]-1,3-dihydro-3-fluoro-6-[4-(trifluoromethyl)phenyl]-2H-indol-2-one], the melting point is 103 to 105 °C. Take `O=C1Nc2cc(Cl)ccc2C1(F)c1cc(Cl)ccc1OCC(F)(F)F` (single isomer, unassigned; (+)) [Example 12, (+)-6-Chloro-3-[5-chloro-2-(2,2,2-trifluoroethox)phenyl]-1,3-dihydro-3-fluoro-2H-indol-2-one]: the “KCNQ2 Current” value in series [1] (at 20 μM) is on record as “++ (++ = >150%)”. For the compound `CCSc1ccc(Cl)cc1C1(F)C(=O)Nc2cc(C(F)(F)F)ccc21` (stereo not shown) [Example 17, 3-[5-Chloro-2-(ethylthio)phenyl]-1,3-dihydro-3-fluoro-6-(trifluoromethyl)-2H-indol-2-one], the melting point lay within 105 to 107 °C.

In the case of “(±)-3-[5-Chloro-2-(2,2,2-trifluoroethoxy)phenyl]-5,6-dichloro-1,3-dihydro-3-fluoro-2H-indol-2-one [Example 9]”, the “KCNQ2 Current” value in series [1] (at 20 μM) was “+ (+ = 120-150%)”.

The values above are taken from patent US6469042B1, “Fluoro oxindole derivatives as modulators if KCNQ potassium channels” (Bristol-Myers Squibb Company, priority 2001, dated 2002).
